Entries after “also recorded” stand apart in the source; their conditions may differ.
Key:
[1] = system: gene switch components VP16/RxR and Gal4/EcR controlling mbIL-15 in CD19 CAR-T cells; assay: T cell activation and ligand specific control of mbIL-15 (NFAT6-IL2 promoter driven gene switch), flow cytometry; type: cell-based, human
Method: Sleeping Beauty transposons were designed to stably express CD19-specific CAR, a cell tag as well as gene switch-controlled mbIL-15. Expression of one or both of gene switch components (e.g. VP16/RxR and Gal4/EcR) were performed under the control of a T cell activation specific promoter. In this example, a T cell activation dependent promoter generated by 6×NFAT response element fused to minimal IL-2 promoter (NFAT6-IL2 promoter) was utilized to drive expression of gene switch components—VP16-RxR and/or Gal4-EcR fusion proteins for conditional expression of mbIL-15. When components of the gene switch are under the control of NFAT6-IL2 promoter, expression of mbIL-15 requires two conditions to be met: 1) T cells are activated; and 2) activator ligand, veledimex, to be present. SB transposons construct combinations shown in FIG. 20A were transfected along with SB11 transposase in donor T cells. […]
The following day (day 1) cells were counted, and CAR expression was measured by flow cytometry. […]
For flow cytometry analysis to assess expression of various markers and gene(s) of interest cells were gently resuspended and cell number and viability were measured using Trypan blue exclusion method with the Countess instrument. Cell diameter size was also recorded. […] The prepared antibody cocktails and associated fluorescence minus one/isotype control were added to stain the cell samples, and then the samples were incubated on ice for 30 min. […] All samples were run on a LSR II flow cytometer, a Fortessa X-20 flow cytometer (BD Biosciences) or iQue Screener Plus (Intellicyt) and data was analyzed using FlowJo V10 (TreeStar, Ashland, Oreg.) or iQue Screener software. […]
Non-activated or activated CAR-T cells were harvested and either 100 nM veledimex or DMSO (to keep DMSO concentration constant in both cultures) was added to the cultures. […] CAR and mbIL-15 expression was quantified in either resting (FIG. 20B) or activated T cells in presence of absence of veledimex (FIG. 20C: ConA 1 μg/mL; ConA 5 μg/mL: FIG. 20D, PMA/Ionomycin: FIG. 20E).

[2] = system: RTS-IL-12 in EGFRvIII-CAR-T cells; assay: IL-12 induction in EGFRvIII-CAR/RTS-IL-12 T cells, ELISA of culture supernatant; type: cell-based
Description: Sleeping Beauty transposons were designed as depicted in FIG. 22 to stably express EGFRvIII-specific CAR, a cell tag and RTS-IL-12. Transposon plasmids were electroporated in several donor T cells as previously described. EGFRvIII-CAR-T cells were selectively expanded ex vivo by successive rounds of stimulations every 7-10 days for up to 4 cycles with either γ-irradiated or mitomycin C treated AaPC that served as “feeder cells” at 1:1 ratio in media supplemented with IL-2 and IL-21. The AaPC cells used were K562-AaPC expressing EGFRvIII antigen. FIG. 26 depicts CAR expression in T cells from multiple donors as the CAR+ T cells are selectively expanded ex vivo.
To assay IL-12 induction in EGFRvIII-CAR-T cells, Pan T-cells at 24 h post nucleofection were treated with DMSO (control) or veledemix in the presence of AaPCs in media containing IL-21. After 48 hours post-nucleofection, culture supernatants were analyzed for IL-12 levels by ELISA.
Furthermore, the ability of RTS-IL-12/CAR-T cells to produce inducible IL-12 was assessed in presence or absence of antigen specific stimulation. EGFRvIII-CAR/RTS-IL-12 T cells were expanded ex vivo by three successive rounds of stimulation with EGFRvIII^+ AaPCs. […]

CCC[C@@H](N(NC(=O)c1cccc(OC)c1CC)C(=O)c1cc(C)cc(C)c1)C(C)(C)C [veledimex, N-[(1R)-1-(1,1-dimethylethyl)butyl]-N′-(2-ethyl-3-methoxybenzoyl)-3,5-dimethylbenzohydrazide] was tested, and the “mbIL-15 expression in activated CAR-T cells with gene switch components under NFAT6-IL-2 promoter” value ([1]; constructs #3, 4 and 6, ConA 1 or 5 μg/mL or PMA/Ionomycin, 100 nM veledimex) was “exhibited expression of mbIL-15; also recorded: dependent on T cell activation (with addition of ConA) and presence of veledimex”, the “mbIL-15 expression in absence of T cell activation” value ([1]; resting CAR-T cells, 100 nM veledimex, at least 24 hours) was “only CAR-T cells that harbor transposons for expression of gene switch components (e.g. VP16/RxR and Gal4/EcR) under a constitutive promoter were able to express mbIL-15” and the “levels of mbIL-15 expression versus level of T cell activation” value ([1]; veledimex at fixed concentration, ConA 1 vs 5 μg/mL) was “increased with level of T cells activation”. For the same compound, the “veledimex induced IL-12 with versus without EGFRvIII^+ AaPCs” value ([2]; 100 nM veledimex, 48 hours, after three rounds of stimulation) was “greatly enhanced in presence of EGFRvIII antigen specific stimulation” and the “IL-12 expression in culture supernatant” value ([2]; T cells co-expressing CAR and RTS-IL-12, treated 24 h post nucleofection with AaPCs and IL-21) was “induced IL-12 expression”.

From patent US11692194B2, “Modulating expression of polypeptides via new gene switch expression systems” (Precigen, Inc., priority 2017, dated 2023)
